Reference: publication PMC7145534, “Are the intrinsically disordered linkers involved in SSB binding to accessory proteins?” (Nucleic Acids Research, 2019)
“Also recorded” adds a separate entry of the source.

B1: P65: SSB-Ct peptide, C-terminal 65 amino acids of SSB; acidic tip and the full IDL (peptide)
peptide: GGRQGGGAPAGGNIGGGQPQGGWGQPQQPQGGNQFSGGAQSRPQQSAPAAPSNEPPMDFDDDIPF

Columns and labels:
PriC = test: ITC of SSB-Ct peptides binding to PriC; parameters: species or system Escherichia coli; settings: 25°C
Procedure: (§1) The concentrations were determined thereafter.

PriA [1] = settings: pH 8.0, 50 mM NaCl, 25°C; N fixed to 1
Procedure: Isothermal titration calorimetry (ITC) experiments were performed using a VP-ITC titration microcalorimeter (Malvern Panalytical, Malvern, UK) ([68]). All proteins and oligonucleotides were dialyzed extensively against the indicated buffer and cleared by centrifugation at 14 000 rpm for 15 min at 4°C. The concentrations were determined thereafter. For experiments with the SSB-Ct peptides and SIPs, 40–50 μM peptides were titrated into 1–2 μM SIPs in Buffer BTP at pH 8.0 and 50 mM NaCl. For experiments with the full-length SSB and its deletion mutants and SIPs, SSB tetramer (8–10 μM) was titrated into SIP (1 μM) in Buffer BTP at pH 7.0 and 200 mM NaCl. The heats of dilution were obtained by blank titrations in which the titrant species is titrated into the buffer, and corrections for heats of dilution were applied.
The raw data were analyzed to obtain titration curves by integrating each peak from the time of titrant addition until equilibration back to the baseline using ‘MicroCal Data Analysis’ software provided by the manufacturer. […] The concentration of the free ligand (X) was obtained by solving Equation (2).(2)
In Equations (1) and (2), and are the total concentrations of the ligand and macromolecule, respectively, in the calorimetric cell after ith injection and X is the free ligand concentration. Nonlinear least-squares fitting of the data was performed using the same software. […]

DNA Pol III (χ) [2] = settings: previous study; cited from earlier work
Source text: When DNA is bound to the DBD, the acidic tip no longer interacts with the DBD and thus is more available to interact with a SIP. This is supported by the observation that ΔH = −6.0 ± 0.1 kcal/mol for RecO binding to the SSBΔ120-166–(dT)70 complex, which should not contain contributions from the acidic tip-DBD intramolecular interactions.

PriA [3] = settings: previous study; cited from earlier work
Procedure: All binding reactions were performed under identical solution conditions, although additional experiments were performed at a lower [NaCl] for PriC as indicated, ...

E. coli RecO = test: ITC of SSB-Ct peptides binding to RecO; parameters: species or system Escherichia coli; settings: 25°C
Procedure: as §1

DNA Pol III (χ) [4] = test: ITC of SSB-Ct peptides binding to the χ subunit; parameters: species or system Escherichia coli; settings: pH 8.0, 50 mM NaCl, 25°C; N fixed to 1
Procedure: as §1

(dT)70 = test: ITC control of P65 peptide and (dT)70; assay type: binding; settings: BTP pH 7.0, 20 mM NaCl, 25°C
Procedure: The concentrations were determined thereafter. […]
Figure S7. Results from various control ITC titrations of (a) SSB-A and RecO at 15°C and (b) 25°C, (c) SSB-A and c, (d) P65 and (dT)70, (e) (dT)70 and SSB-A, and (f) (dT)70 and wtSSB. (a) SSB-A (10 µM), a homo-tetrameric SSB variant containing an additional six amino acids, TGASGT, at the C-terminus of each subunit, was titrated into […]
(5.9 µM) was titrated into c (1 µM) in buffer T (10 mM Tris-HCl, pH 8.1, 200 mM NaCl, […]
0.1 mM EDTA) at 25° C. […] (d) dT70 (60 µM) was […]
titrated into P65 (2 µM) in buffer BTP (pH 7.0, 20 mM NaCl) at 25° C. P65, the full-length […]
(dT)70. (e) (dT)70 (15 µM) was titrated into SSB-A (1 µM) in buffer T at 25° C. SSB-A (also on this page, place not known: 15°C 25°C. 25°C. 25°C. 25°C. 2.00 kcal mol-1 of injectant kcal mol-1 of injectant [SSB-A]tot/[RecO]tot kcal mol-1 of injectant [SSB-A]tot/[c]tot (f)(d))

| Molecule | K (equilibrium binding constant) (PriC; pH 8.0, 10 mM NaCl, N fixed to 1) | binding detected by ITC (PriC; pH 8.0, 50 mM NaCl) | K (equilibrium binding constant) (PriA [1]) | binding to χ (DNA Pol III (χ) [2]) | binding to PriA (PriA [3]) | K (E. coli RecO; BTP pH 7, 200 mM NaCl) | K (equilibrium binding constant) (E. coli RecO; pH 8.0, 50 mM NaCl, N fixed to 1) | K (equilibrium binding constant) (DNA Pol III (χ) [4]) | binding to (dT)70 by ITC ((dT)70) |
| --- | --- | --- | --- | --- | --- | --- | --- | --- | --- |
| P15: SSB-Ct peptide, C-terminal 15 amino acids of E. coli SSB, contains acidic tip, no PXXP motifs (PSNEPPMDFDDDIPF) | (1.6 ± 0.1) × 10^6 M^−1 | undetectable; also recorded: showed no binding | (2.6 ± 0.1) × 10^5 M^−1 | same affinity as P9 | same affinity as P9 | (1.1 ± 0.1) × 10^6 M^−1 | (1.2 ± 0.3) × 10^7 M^−1 | (3.0 ± 0.1) × 10^5 M^−1 |  |
| B1 |  |  |  |  |  |  |  |  | does not interact; also recorded: no detectable interaction |
